As usually defined, the IC50 is the midpoint of a concentration-inhibition curve.

IC50 data for 13 compounds are collected here from patent US10035778B2, “Meta-azacyclic amino benzoic acid derivatives as pan integrin antagonists” (Saint Louis University, priority 2015, dated 2018).

Common to all, as to type: binding
Test [1] concerns the target Recombinant human integrin α5β1 (Homo sapiens (Human), UniProt P05556+P08648). In words: Solid Phase Receptor Assay (SPRA) for α5β1 function. The note with it: fibronectin-coated plate. Here is the method: 1. Solid Phase Receptor Assay (SPRA) for α5β1 Function
Purified human fibronectin (R&D Systems, 1918-FN) diluted to 2 μg/mL in TBS+ buffer (25 mM Tris pH 7.4, 137 mM NaCl, 2.7 mM KCl, 1 mM CaCl2, 1 mM MgCl2, 1 mM MnCl2) was added to wells (50 μL/well) of a 96-well half-well transparent microtiter plate (Greiner 675061) and incubated overnight at 4° C. Wells were washed 3 times with 150 μL TBS+ and 150 μL of blocking buffer (TBS+ with 1% bovine serum albumin, Sigma A7906) were added. The plate was incubated for 1 hr at 37° C. and then washed 3× with TBS+ buffer. Recombinant human integrin α5β1 (R&D Systems, 3230-A5) was diluted to 0.1 μg/mL in TBS+/0.1% bovine serum albumin. Compounds were diluted 1:100 into the integrin solution and then 50 μL added to empty wells of the washed fibronectin-coated plate according to a standard template with each sample repeated in triplicate. After incubation for two hours at room temperature, the plate was washed 3× with 150 μL of TBS+ buffer. To each well, 50 μl of biotinylated anti-α5 antibody (R&D Systems, BAF1864) at 0.5 μg/mL in TBS+/0.1% BSA were added and the plate covered and incubated for 1 hr at room temperature. After washing the plate 3× with 150 μL of TBS+ buffer, 50 μL of streptavidin-conjugated horseradish peroxidase (R&D Systems, DY998) diluted in TBS+ blocking buffer were added to the wells and the plate incubated for 20 min at room temperature. The plate was washed 3× with TBS+ buffer followed by 50 μL of room temperature TMB substrate (Sigma, T444) added to each well and the plate incubated for 20 min at room temperature. Plates were read by colorimetric detection at 650 nm wavelength using a Tecan Safire II plate reader. Concentration-response curves were constructed by non-linear regression (best fit) analysis, and IC50 values were calculated for each compound.

In test [2] the target is Recombinant human integrin αvβ1 (Homo sapiens (Human), UniProt P05556+P06756). In words: Solid Phase Receptor Assay (SPRA) for αvβ1 function. The note with it: fibronectin-coated plate. As to the method:
2. Solid Phase Receptor Assay (SPRA) for αvβ1 Function
Purified human fibronectin (R&D Systems, 1918-FN) diluted to 5 μg/mL in TBS+ buffer (25 mM Tris pH 7.4, 137 mM NaCl, 2.7 mM KCl, 1 mM CaCl2, 1 mM MgCl2, 1 mM MnCl2) was added to wells (50 μL/well) of a 96-well half-well transparent microtiter plate (Greiner 675061) and incubated overnight at 4° C. Wells were washed 3 times with 150 μL TBS+ and 150 μL of blocking buffer (TBS+ with 1% bovine serum albumin, Sigma A7906) were added. The plate was incubated for 1 hr at 37° C. and then washed 3× with TBS+ buffer. Recombinant human integrin αvβ1 (R&D Systems. 6579-AV) was diluted to 2.0 μg/mL in TBS+/0.1% bovine serum albumin. Compounds were diluted 1:100 into the integrin solution and 50 μL added to empty wells of the washed fibronectin-coated plate according to a standard template with each sample repeated in triplicate. After incubation for two hours at room temperature, the plate was washed 3× with 150 μL of TBS+ buffer. To each well, 50 μL of biotinylated anti-αv antibody (R&D Systems, BAF1219) at 1 μg/mL in TBS+/0.1% BSA were added and the plate covered and incubated for 1 hr at room temperature. After washing the plate 3× with 150 μL of TBS+ buffer, 50 μL of streptavidin-conjugated horseradish peroxidase (R&D Systems, DY998) diluted in TBS+ blocking buffer were added to the wells and the plate incubated for 20 min at room temperature. The plate was washed 3× with TBS+ buffer followed by 50 μL of TMB substrate (Sigma, T4444) added to each well and the plate incubated for 20 min at room temperature. Plates were read by colorimetric detection at 650 nm wavelength using a Tecan Safire II plate reader. Concentration-response curves were constructed by non-linear regression (best fit) analysis, and IC50 values were calculated for each compound.

The target of test [3] is Recombinant human integrin αvβ5 (Homo sapiens (Human), UniProt P06756+P18084). In words: Solid Phase Receptor Assay (SPRA) for αvβ5 function. The note with it: vitronectin-coated plate. As to the method: 4. Solid Phase Receptor Assay (SPRA) for αvβ5 Function
Recombinant human vitronectin (R&D Systems, 2308-VN) at 0.25 μg/mL in TBS+ buffer (25 mM Tris pH 7.4, 137 mM NaCl, 2.7 mM KCl, 1 mM CaCl2, 1 mM MgCl2, 1 mM MnCl2) was added to wells (50 μL/well) of a 96-well half-well transparent microtiter plate (Greiner 675061) and incubated overnight at 4° C. Wells were washed 3 times with 150 μL TBS+ and 150 μL of blocking buffer (TBS+ with 1% bovine serum albumin, Sigma A7906) were added. The plate was incubated for 1 hr at 37° C. and then washed 3× with TBS+ buffer. Recombinant human integrin αvβ5 (R&D Systems, 2528-AV) was diluted to 0.1 μg/mL in TBS+/0.1% bovine serum albumin. Compounds were diluted 1:100 into the integrin solution and then 50 μL added to empty wells of the washed vitronectin-coated plate according to a standard template with each sample repeated in triplicate. After incubation for two hours at room temperature, the plate was washed 3× with 150 μL of TBS+ buffer. To each well, 50 μl of biotinylated anti-αv antibody (R&D Systems, BAF1219) at 0.5 μg/mL in TBS+/0.1% BSA at 0.5 μg/mL were added and the plate covered and incubated for 1 hr at room temperature. After washing the plate 3× with 150 μL of TBS+ buffer, 50 μL of streptavidin-conjugated horseradish peroxidase (R&D Systems DY998) diluted in TBS+ blocking buffer were added to the wells and the plate incubated for 20 min at room temperature. The plate was washed 3× with TBS+ buffer followed by 50 μL of TMB substrate (Sigma T4444) added to each well and the plate incubated for 20 min at room temperature. Plates were read by colorimetric detection at 650 nm wavelength using a Tecan Safire II plate reader. Concentration-response curves were constructed by non-linear regression (best fit) analysis, and IC50 values were calculated for each compound.

Recombinant human integrin α5β1, sequence (P08648 42-995): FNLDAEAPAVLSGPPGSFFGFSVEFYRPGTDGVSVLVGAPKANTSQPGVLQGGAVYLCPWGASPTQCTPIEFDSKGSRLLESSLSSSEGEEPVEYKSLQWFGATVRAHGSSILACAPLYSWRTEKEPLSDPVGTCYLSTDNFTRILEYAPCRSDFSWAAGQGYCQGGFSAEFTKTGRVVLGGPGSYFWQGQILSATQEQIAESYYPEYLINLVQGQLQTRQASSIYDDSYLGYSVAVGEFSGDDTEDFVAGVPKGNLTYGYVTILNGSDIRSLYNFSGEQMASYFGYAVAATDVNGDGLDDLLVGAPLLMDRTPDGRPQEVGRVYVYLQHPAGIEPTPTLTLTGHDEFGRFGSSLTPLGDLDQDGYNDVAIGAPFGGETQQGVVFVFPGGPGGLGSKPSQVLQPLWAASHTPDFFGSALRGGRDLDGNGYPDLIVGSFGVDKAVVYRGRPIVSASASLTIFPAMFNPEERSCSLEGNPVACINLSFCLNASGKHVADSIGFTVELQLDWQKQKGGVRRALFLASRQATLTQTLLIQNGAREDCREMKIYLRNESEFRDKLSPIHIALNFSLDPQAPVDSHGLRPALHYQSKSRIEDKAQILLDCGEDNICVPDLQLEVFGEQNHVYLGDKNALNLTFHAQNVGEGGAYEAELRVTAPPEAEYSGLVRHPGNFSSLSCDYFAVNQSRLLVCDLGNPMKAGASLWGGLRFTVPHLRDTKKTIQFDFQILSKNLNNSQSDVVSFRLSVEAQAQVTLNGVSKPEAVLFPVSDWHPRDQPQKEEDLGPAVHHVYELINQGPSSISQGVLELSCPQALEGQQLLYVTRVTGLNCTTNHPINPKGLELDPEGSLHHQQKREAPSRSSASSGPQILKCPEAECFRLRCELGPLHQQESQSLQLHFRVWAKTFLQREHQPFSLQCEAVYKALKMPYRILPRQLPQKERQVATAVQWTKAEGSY
Recombinant human integrin α5β1, sequence (P05556 21-728): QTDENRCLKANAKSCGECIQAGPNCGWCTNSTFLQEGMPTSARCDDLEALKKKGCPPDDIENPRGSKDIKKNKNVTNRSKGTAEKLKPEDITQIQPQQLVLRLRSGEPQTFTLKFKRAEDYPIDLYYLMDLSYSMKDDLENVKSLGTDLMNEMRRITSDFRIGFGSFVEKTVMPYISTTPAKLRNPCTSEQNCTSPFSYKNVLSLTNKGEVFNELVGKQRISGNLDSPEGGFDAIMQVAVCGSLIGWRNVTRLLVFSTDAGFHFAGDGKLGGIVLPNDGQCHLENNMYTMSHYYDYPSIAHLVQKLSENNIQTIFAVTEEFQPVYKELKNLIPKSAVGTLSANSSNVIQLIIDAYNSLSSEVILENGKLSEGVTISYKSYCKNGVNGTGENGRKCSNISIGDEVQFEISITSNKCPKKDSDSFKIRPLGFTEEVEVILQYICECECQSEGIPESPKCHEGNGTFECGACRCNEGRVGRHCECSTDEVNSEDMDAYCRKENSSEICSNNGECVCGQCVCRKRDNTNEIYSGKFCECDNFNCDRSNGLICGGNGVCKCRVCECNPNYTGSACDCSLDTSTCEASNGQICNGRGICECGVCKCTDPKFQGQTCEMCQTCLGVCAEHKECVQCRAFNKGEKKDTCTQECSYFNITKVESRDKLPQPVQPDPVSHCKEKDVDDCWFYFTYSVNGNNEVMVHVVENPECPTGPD
Recombinant human integrin αvβ5, sequence (P06756 31-992): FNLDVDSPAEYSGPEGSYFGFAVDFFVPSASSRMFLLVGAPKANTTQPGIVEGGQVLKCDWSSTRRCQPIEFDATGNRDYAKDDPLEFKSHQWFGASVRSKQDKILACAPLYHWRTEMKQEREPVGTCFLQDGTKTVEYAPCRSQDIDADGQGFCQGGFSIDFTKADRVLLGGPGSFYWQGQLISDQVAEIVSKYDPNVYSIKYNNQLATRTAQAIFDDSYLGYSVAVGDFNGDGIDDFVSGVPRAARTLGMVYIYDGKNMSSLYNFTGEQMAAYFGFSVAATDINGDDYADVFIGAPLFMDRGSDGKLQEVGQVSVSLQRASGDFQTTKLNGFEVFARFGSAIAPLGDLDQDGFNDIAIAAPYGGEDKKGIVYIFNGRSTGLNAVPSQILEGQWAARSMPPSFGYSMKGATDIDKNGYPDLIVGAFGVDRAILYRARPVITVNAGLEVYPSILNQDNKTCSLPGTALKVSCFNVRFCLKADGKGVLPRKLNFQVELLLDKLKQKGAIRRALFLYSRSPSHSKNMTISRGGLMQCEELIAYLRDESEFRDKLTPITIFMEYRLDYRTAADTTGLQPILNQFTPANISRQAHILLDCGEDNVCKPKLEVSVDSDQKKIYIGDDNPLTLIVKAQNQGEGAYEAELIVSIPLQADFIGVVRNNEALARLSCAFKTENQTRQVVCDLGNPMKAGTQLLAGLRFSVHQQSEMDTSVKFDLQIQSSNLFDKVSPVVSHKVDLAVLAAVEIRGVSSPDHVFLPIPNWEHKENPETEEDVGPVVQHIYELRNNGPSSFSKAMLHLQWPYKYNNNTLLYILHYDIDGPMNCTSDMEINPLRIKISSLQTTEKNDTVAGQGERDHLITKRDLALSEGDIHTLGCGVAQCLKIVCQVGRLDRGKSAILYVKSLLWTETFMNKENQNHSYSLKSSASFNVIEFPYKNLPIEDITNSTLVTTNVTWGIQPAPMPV
Recombinant human integrin αvβ5, sequence (P18084 24-719): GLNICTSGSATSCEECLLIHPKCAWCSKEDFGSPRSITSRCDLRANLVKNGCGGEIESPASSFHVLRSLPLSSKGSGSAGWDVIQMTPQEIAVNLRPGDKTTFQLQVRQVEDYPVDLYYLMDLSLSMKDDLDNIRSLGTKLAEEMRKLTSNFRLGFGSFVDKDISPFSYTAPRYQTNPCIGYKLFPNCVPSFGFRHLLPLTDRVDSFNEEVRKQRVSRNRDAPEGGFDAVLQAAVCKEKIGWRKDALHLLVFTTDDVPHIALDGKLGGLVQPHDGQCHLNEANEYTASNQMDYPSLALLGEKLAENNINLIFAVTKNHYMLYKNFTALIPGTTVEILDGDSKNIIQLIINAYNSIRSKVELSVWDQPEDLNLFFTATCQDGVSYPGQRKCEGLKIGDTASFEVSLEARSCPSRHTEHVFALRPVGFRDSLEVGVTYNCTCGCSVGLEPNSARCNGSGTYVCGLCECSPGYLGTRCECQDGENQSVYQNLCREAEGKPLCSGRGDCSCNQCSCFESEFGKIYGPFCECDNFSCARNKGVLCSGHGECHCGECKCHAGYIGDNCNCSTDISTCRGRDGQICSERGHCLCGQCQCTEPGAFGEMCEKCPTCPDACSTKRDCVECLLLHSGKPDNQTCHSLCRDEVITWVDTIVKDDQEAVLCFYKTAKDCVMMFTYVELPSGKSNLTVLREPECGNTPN
Recombinant human integrin αvβ1, sequence (P06756 31-992): as the sequence (P06756 31-992) above
Recombinant human integrin αvβ1, sequence (P05556 21-728): as the sequence (P05556 21-728) above

As to `N=C(N)Nc1cccc(C(=O)NCC(=O)NC(CC(=O)O)c2ccccc2)c1` (stereo not drawn) [Example C5, reference compound], the IC50 in test [1] stood at 24 nM; in test [2], 17 ± 5 nM; in test [3], 1 nM.

Regarding `O=C(O)C[C@H](NC(=O)CNC(=O)c1cncc(NC2=NCC(O)CN2)c1)c1cc(Br)cc(Br)c1` (stereo partly drawn) [Example 14, (3S)-3-(3,5-dibromophenyl)-3-[[2-[[5-[(5-hydroxy-1,4,5,6-tetrahydropyrimidin-2-yl)amino]pyridine-3-carbonyl]amino]acetyl]amino]propanoic acid], the IC50 in test [1] turned out to be 0.6 nM; in test [2] it was 0.7 nM; in test [3], 0.1 nM.

In the case of `O=C(O)CC(NC(=O)CNC(=O)c1cc(O)cc(NC2=NCC(O)CN2)c1)c1cc(Br)cc(Br)c1O` (stereo not drawn) [Example C7, reference compound], the IC50 in test [1] came to 59 nM; in test [2], 101 nM; in test [3], 25 nM.

As for `O=C(O)C[C@H](NC(=O)CNC(=O)c1cncc(NC2=NCC(O)CN2)c1)c1cc(Cl)cc(Br)c1` (stereo partly drawn) [Example 8, (3S)-3-(3-bromo-5-chloro-phenyl)-3-[[2-[[5-[(5-hydroxy-1,4,5,6-tetrahydropyrimidin-2-yl)amino]pyridine-3-carbonyl]amino]acetyl]amino]propanoic acid], the IC50 in test [1] came to 0.6 nM; in test [2] it was 1 nM; in test [3], 0.1 nM.

On to `O=C(O)C[C@H](NC(=O)CNC(=O)c1cc(O)cc(NC2=NCC(O)CN2)c1)c1ccccc1` (stereo partly drawn) [Example C2, reference compound], for which the IC50 in test [1] turned out to be 8 nM; in test [2] it was 5 nM; in test [3], 0.4 nM.

`O=C(O)C[C@H](NC(=O)CNC(=O)c1cc(O)cc(NC2=NCC(O)CN2)c1)c1cc(Cl)cc(Br)c1O` (stereo partly drawn) [Example C1, reference compound]: the IC50 is 16 ± 9 nM in test [1], 17 ± 2 nM in test [2] and 3 ± 1 nM in test [3].

For the compound `O=C(O)C[C@H](NC(=O)CNC(=O)c1cc(O)cc(NC2=NCC(O)CN2)c1)c1cc(Cl)cc(Br)c1` (stereo partly drawn) [Example 6, (3S)-3-[3-bromo-5-chloro-phenyl)-3-(2-(3-hydroxy-5-((5-hydroxy-1,4,5,6-tetrahydropyrimidin-2-yl)amino)benzamido)acetamido]propanoic acid], the values for the IC50 in test [1], in test [2] and in test [3] were 0.6 nM, 3 nM and 0.2 nM, respectively.

For `Cc1cc(Br)cc([C@H](CC(=O)O)NC(=O)CNC(=O)c2cc(O)cc(NC3=NCC(O)CN3)c2)c1` (stereo partly drawn) [Example 11, (3S)-3-[3-bromo-5-methyl-phenyl)-3-(2-(3-hydroxy-5-((5-hydroxy-1,4,5,6-tetrahydropyrimidin-2-yl)amino)benzamido)acetamido)propanoic acid], the 50% inhibitory concentration (IC50) in test [1] came out at 0.5 nM; in test [2], 0.4 nM; in test [3], 0.3 nM.

For the compound `O=C(O)C[C@H](NC(=O)CNC(=O)c1cc(O)cc(NC2=NCC(O)CN2)c1)c1cc(C(F)(F)F)cc(C(F)(F)F)c1` (stereo partly drawn) [Example 10, (3S)-3-[3,5-bis(trifluoromethyl)phenyl)-3-(2-(3-hydroxy-5-((5-hydroxy-1,4,5,6-tetrahydropyrimidin-2-yl)amino)benzamido)acetamido]propanoic acid], the IC50 was determined as 1 ± 0.4 nM in test [1], 2 ± 1 nM in test [2] and 1 nM in test [3].

`Cc1cc(Cl)cc([C@H](CC(=O)O)NC(=O)CNC(=O)c2cc(O)cc(NC3=NCC(O)CN3)c2)c1` (stereo partly drawn) [Example 12, (3S)-3-[3-chloro-5-methyl-phenyl)-3-(2-(3-hydroxy-5-((5-hydroxy-1,4,5,6-tetrahydropyrimidin-2-yl)amino)benzamido)acetamido)propanoic acid]: the IC50 stood at 2 nM in test [1], 4 ± 2 nM in test [2] and 0.4 nM in test [3].

As for `O=C(O)CC(NC(=O)CNC(=O)c1cc(O)cc(NC2=NCC(O)CN2)c1)c1cc(Cl)cc(Cl)c1O` (stereo not drawn) [Example C3, reference compound], the IC50 in test [1] was 40 nM; in test [2] it was 7 nM; in test [3] it was 2 nM.

As for `Cc1ccc(O)c(C(CC(=O)O)NC(=O)CNC(=O)c2cc(O)cc(NC3=NCC(O)CN3)c2)c1` (stereo not drawn) [Example C6, reference compound], the IC50 in test [1] amounted to 7 ± 4 nM; in test [2] it was 8 ± 6 nM; in test [3], 1 nM.

As for `O=C(O)C[C@H](NC(=O)CNC(=O)c1cncc(NC2=NCC(O)CN2)c1)c1cc(Cl)cc(C(F)(F)F)c1` (stereo partly drawn) [Example 7], the IC50 in test [1] amounted to 0.7 nM; in test [2], 1 nM; in test [3] it was 0.2 nM.
